Reference: patent US20230416330A1, “Optimized GIP Peptide Analogues” (Antag Therapeutics ApS, priority 2019, published 2023)
Starred links: 1 amine or outer side, 2 acyl side, 3 side chain; linkers in the order of their positions; H or OH if unused. Non-standard residues stand in square brackets, D forms with d. Residues, ends and D or L forms follow the SMILES beside them. Groups on a side chain read outwards from the residue. *: point of attachment. C18 diacid = O=C(O)CCCCCCCCCCCCCCCCC(=O)*; C16 diacid = O=C(O)CCCCCCCCCCCCCCC(=O)*; γGlu = O=C(O)[C@H](CCC(=O)[*:2])N[*:1]; Glutaryl = O=C(CCCC(=O)[*:2])[*:1]; Nle = CCCC[C@H](N)C(=O)O; AEEA = NCCOCCOCC(=O)O

Biological target: T1, human GIP receptor (Homo sapiens, UniProt P48546)
T1 construct: host or cells: HEK-293 cells, transient transfection (Lipofectamine 2000), cDNA in pCMV-Script vector
T1 sequence (P48546 22-466): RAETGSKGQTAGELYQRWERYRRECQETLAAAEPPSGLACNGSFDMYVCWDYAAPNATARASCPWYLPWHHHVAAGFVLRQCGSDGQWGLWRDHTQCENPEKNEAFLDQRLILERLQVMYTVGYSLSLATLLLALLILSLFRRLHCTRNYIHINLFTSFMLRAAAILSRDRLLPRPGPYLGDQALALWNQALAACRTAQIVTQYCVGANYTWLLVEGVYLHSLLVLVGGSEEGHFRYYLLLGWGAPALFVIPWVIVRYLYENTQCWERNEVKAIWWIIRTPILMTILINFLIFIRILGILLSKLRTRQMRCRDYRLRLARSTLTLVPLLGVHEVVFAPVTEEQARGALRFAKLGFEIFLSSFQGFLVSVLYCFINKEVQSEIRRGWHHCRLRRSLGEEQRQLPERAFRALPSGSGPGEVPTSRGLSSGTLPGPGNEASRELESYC
Assay: cAMP assay Alternative 1 (CisBio assay), GIPR antagonism
Format: cell-based
Conditions: Table 2B; % inhibition of Emax
Description: HEK293 cells were cultured in 10% CO2 and 37° C. in Dulbecco's modified Eagle's medium supplemented with 10% fetal bovine serum, 2 mM glutamine, 180 units/ml penicillin, and 45 µg/ml streptomycin. Transient transfection with hGIPR for the CisBio assay from Table 2C was performed by using Lipofectamine 2000.
The in vitro functional activity of compounds towards human GIP receptor can also be determined in HEK-293 cells transiently expressing the receptor. On the day of the assay, cells were resuspended in HBSS buffer (Gibco, 14025-50) supplemented with […] (Gibco, 15630-106), 0.1% Pluronic F-68 (Gibco, 24040-032) and 0.1% casein (Sigma, C4765), and plated in 384-well plates at a density of 5000 cells/well. The GIP peptide analogues of the present disclosure were diluted in HBSS buffer supplemented with 20 mM HEPES, 0.1% pluronic, 0.1% casein and 500 uM IBMX. […] The resulting decrease in intracellular cAMP was quantitatively determined using the CisBio cAMP Dynamic 2 HTRF Assay Kit. The assay is based on a competition between native cAMP produced by cells and cAMP labeled with the dye d2 for binding to a cryptate labeled antibody. The specific signal (i.e. energy transfer signal) is inversely proportional to the concentration of cAMP in the sample.
The cAMP-d2 conjugate and the antibody anti-cAMP-Cryptate, both diluted in lysis buffer provided in the kit, were added to the cells according to the manufacturer's protocol. The resulting competitive assay was incubated for 60 minutes at room temperature, and the signal was detected by using a PerkinElmer Envision® instrument with excitation at 320 nm and emission at 665 nm and 620 nm. The HTRF ratio (emission at 665 nm/620 nm*10,000) is inversely proportional to the amount of cAMP present and is converted to nM cAMP per well using a cAMP standard curve. The dose-response curves were fitted using the non-linear regression analysis (four-logistic parameter equation) in GraphPad Prism, whereby pIC50 values were estimated. To test for agonistic properties at the GIP receptor, compounds were diluted and added to cells as described above and incubated for 30 min at 37° C. The resulting increase in intracellular cAMP was determined using the CisBio cAMP Dynamic 2 HTRF Assay Kit as described above.
The dose-response curves were fitted using the non-linear regression analysis (four-logistic parameter equation) in GraphPad Prism, whereby pIC50 values were estimated.

Structure (SMILES) | cAMP antagonism % inhib [%]
CC[C@H](C)[C@H](NC(=O)[C@H](CO)NC(=O)[C@H](Cc1ccc(O)cc1)NC(=O)[C@H](CC(=O)O)NC(=O)[C@H](CO)NC(=O)[C@@H](NC(=O)[C@H](Cc1ccccc1)NC(=O)[C@@H](NC(=O)CNC(=O)[C@@H](N)CCC(=O)O)[C@@H](C)O)[C@@H](C)CC)C(=O)N[C@@H](C)C(=O)N[C@@H](CC(C)C)C(=O)N[C@@H](CC(=O)O)C(=O)N[C@@H](CCCCN)C(=O)N[C@H](C(=O)N[C@@H](CCCCNC(=O)COCCOCCNC(=O)COCCOCCNC(=O)CC[C@H](NC(=O)CCCCCCCCCCCCCCCCC(=O)O)C(=O)O)C(=O)N[C@@H](CCC(N)=O)C(=O)N[C@@H](CCC(N)=O)C(=O)N[C@@H](CC(=O)O)C(=O)N[C@@H](Cc1ccccc1)C(=O)N[C@H](C(=O)N[C@@H](CCC(=O)O)C(=O)N[C@@H](Cc1c[nH]c2ccccc12)C(=O)N[C@@H](CC(C)C)C(=O)N[C@@H](CC(C)C)C(=O)N[C@@H](C)C(=O)N[C@@H](CCC(N)=O)C(=O)N[C@@H](CCCCN)C(=O)N1CCC[C@H]1C(=O)N[C@@H](CO)C(=O)N[C@@H](CO)C(=O)NCC(=O)N[C@@H](C)C(=O)N1CCC[C@H]1C(=O)N1CCC[C@H]1C(=O)N1CCC[C@H]1C(=O)N[C@@H](CO)C(=O)O)C(C)C)[C@@H](C)CC [AT682] (H-EGTFISDYSIALDKIK([AEEA-AEEA-γGlu-C18 diacid])QQDFVEWLLAQKPSSGAPPPS-OH; N-terminus assumed) | 89
CCCC[C@H](NC(=O)[C@H](C)NC(=O)[C@@H](NC(=O)[C@H](CO)NC(=O)[C@H](Cc1ccc(O)cc1)NC(=O)[C@H](CC(=O)O)NC(=O)[C@H](CO)NC(=O)[C@@H](NC(=O)[C@H](Cc1ccccc1)NC(=O)[C@@H](NC(=O)CNC(=O)CCCC(=O)O)[C@@H](C)O)[C@@H](C)CC)[C@@H](C)CC)C(=O)N[C@@H](CC(=O)O)C(=O)N[C@@H](CCCCN)C(=O)N[C@H](C(=O)N[C@@H](CCCCNC(=O)COCCOCCNC(=O)COCCOCCNC(=O)CC[C@H](NC(=O)CCCCCCCCCCCCCCCCC(=O)O)C(=O)O)C(=O)N[C@@H](CCC(N)=O)C(=O)N[C@@H](CCC(N)=O)C(=O)N[C@@H](CC(=O)O)C(=O)N[C@@H](Cc1ccccc1)C(=O)N[C@H](C(=O)N[C@@H](CCC(=O)O)C(=O)N[C@@H](Cc1c[nH]c2ccccc12)C(=O)N[C@@H](CC(C)C)C(=O)N[C@@H](CC(C)C)C(=O)N[C@@H](C)C(=O)N[C@@H](CCC(N)=O)C(=O)N[C@@H](CCCCN)C(=O)N1CCC[C@H]1C(=O)N[C@@H](CO)C(=O)N[C@@H](CO)C(=O)NCC(=O)N[C@@H](C)C(=O)N1CCC[C@H]1C(=O)N1CCC[C@H]1C(=O)N1CCC[C@H]1C(=O)N[C@@H](CO)C(=O)O)C(C)C)[C@@H](C)CC [AT702] (Glutaryl-GTFISDYSIA[Nle]DKIK([AEEA-AEEA-γGlu-C18 diacid])QQDFVEWLLAQKPSSGAPPPS-OH) | 85
CC[C@H](C)[C@H](NC(=O)[C@H](CO)NC(=O)[C@H](Cc1ccc(O)cc1)NC(=O)[C@H](CCC(=O)O)NC(=O)[C@H](CO)NC(=O)[C@@H](NC(=O)[C@H](Cc1ccccc1)NC(=O)[C@@H](NC(=O)CNC(=O)[C@@H](N)CCC(=O)O)[C@@H](C)O)[C@@H](C)CC)C(=O)N[C@@H](C)C(=O)N[C@@H](CCSC)C(=O)N[C@@H](CCC(=O)O)C(=O)N[C@@H](CCCCN)C(=O)N[C@H](C(=O)N[C@@H](CCCCNC(=O)CCCCCCCCCCCCCCC(=O)O)C(=O)N[C@@H](CCC(N)=O)C(=O)N[C@@H](CCC(N)=O)C(=O)N[C@@H](CCC(=O)O)C(=O)N[C@@H](Cc1ccccc1)C(=O)N[C@H](C(=O)N[C@@H](CCC(=O)O)C(=O)N[C@@H](Cc1c[nH]c2ccccc12)C(=O)N[C@@H](CC(C)C)C(=O)N[C@@H](CC(C)C)C(=O)N[C@@H](C)C(=O)N[C@@H](CCC(N)=O)C(=O)N[C@@H](CCCCN)C(=O)N1CCC[C@H]1C(=O)N[C@@H](CO)C(=O)N[C@@H](CO)C(=O)NCC(=O)N[C@@H](C)C(=O)N1CCC[C@H]1C(=O)N1CCC[C@H]1C(=O)N1CCC[C@H]1C(=O)N[C@@H](CO)C(=O)O)C(C)C)[C@@H](C)CC [AT614] (H-EGTFISEYSIAMEKIK(C16 diacid)QQEFVEWLLAQKPSSGAPPPS-OH; N-terminus assumed) | 100
